Key:
P-gp expression = assay: Flow cytometric analysis of P-gp expression; type: cell-based, human; details: 72 h; 5 µM 5, 200 nM 7, 100 nM 9, 10 nM TQ, 50 nM DOX, 50 nM PTX
Protocol: P-glycoprotein expression level in NCI-H460, NCI-H460/R, DLD1, and DLD1-TxR and cells was measured by flow cytometry. All cell lines were seeded in adherent 6-well plates and treated with Hsp90 inhibitors for 72 h at the following concentrations: 5 µM compound 5, 200 nM compound 7, 100 nM compound 9 (NCI-H460 and DLD1), and 10 µM compound 5, 500 nM compound 7, 500 nM compound 9 (NCI-H460/R and DLD1-TxR). Cells were also treated with 10 nM TQ, a non-competitive P-gp inhibitor, which served as a positive control. In addition, sensitive cells (NCI-H460 and DLD1) were treated with 50 nM DOX and 50 nM PTX that served as positive controls for the induction of P-gp expression. Then, cells were collected by trypsinization, washed with PBS, and directly immunostained by FITC-conjugated anti-P-gp antibody according to the manufacturer’s protocol. The samples were kept in the dark until the analysis on CyFlow Space Partec flow cytometer (Sysmex Partec GmbH, Görlitz, Germany). The fluorescence of FITC-conjugated anti-P-gp was detected on fluorescence channel 1 (FL1-H) at 530 nm. A minimum of 10,000 events were collected for each sample (the gate excluded cell debris and dead cells) and the obtained results were analyzed with Summit software v4.3 (Dako Colorado Inc., Fort Collins, CO, USA).

NCI-H460/R cells [1] = assay: Combined treatment of compound 5 with DOX, MTT, median effect analysis; type: cell-based, human; details: Homo sapiens, NCI-H460, 72 h, DOX alone, 72 h
Protocol: The combined effects of compound 5 with DOX as well as with PTX were studied in NCI-H460/R and DLD1-TxR cells, respectively, by MTT assay. In simultaneous treatments that lasted 72 h in NCI-H460/R cells, three concentrations of compound 5 (2.5, 5, and 10 µM) were combined with increasing concentrations of DOX (250, 500 and 1000 nM), while in DLD1-TxR cells different concentrations of compound 5 (1, 2.5, and 5 µM) were combined with increasing concentrations of PTX (100, 250 and 500 nM). The nature of the interaction between Hsp90 inhibitors and DOX/PTX was analyzed with CalcuSyn software v1.1 (Biosoft, Cambridge, UK) that uses the Combination Index method based on the multiple drug effect equation [54]. Three data points were used for each single drug in each experiment. The non-constant ratio combination was chosen to assess the effect of both drugs in combination. The results are presented in a fraction-affected CI graph. Values of CI < 1 point to a pronounced additive effect or synergism (the smaller value, the greater the degree of synergy). A value of CI = 1 indicates an additive effect, while values of CI > 1 point to an antagonistic effect.

NCI-H460 cells = assay: MTT assay, cell growth inhibition, NCI-H460; type: cell-based; details: Homo sapiens, 72 h, three independent experiments
Protocol: (§1) A series of 3-aryl-naphtho[2,3-d]isoxazole-4,9-diones were synthesized (Scheme 1, Figure 1) and their growth inhibition activity was tested in vitro on human non-small cell lung carcinoma NCI-H460, colorectal carcinoma DLD1 and their corresponding MDR cells (NCI-H460/R and DLD1-TxR, respectively), as well as normal embryonic lung fibroblasts MRC-5. The differences in cell growth inhibition between cancer and normal cells obtained by the MTT assay after 72 h treatment are presented in Table 1. The effect of compounds is presented as IC50 values that correspond to the 50% of cell growth inhibition.
(§2) Cell viability was assessed by the MTT assay (AppliChem GmbH, Darmstadt, Germany). Cells grown in 25 cm^2 tissue flasks were trypsinized and 1000 cells/well were seeded into flat-bottomed 96-well tissue culture plates and incubated overnight. Subsequently, the cells were treated with increasing concentrations of Hsp90 inhibitors for 72 h: compound 3 (0.1–2.5 µM), compound 4 (0.25–5 µM), compound 5 (0.5–25 µM), compound 6 (50–1000 nM), compound 7 (10–250 nM), compound 8 (0.25–5 µM), compound 9 (10–250 nM), compound 10 (0.5–25 µM), compound 13 (0.5–10 µM), compound 14 (1–25 µM), and compound 15 (10–250 nM). […] After treatment, MTT was added to each well in a final concentration of 0.2 mg/mL for 4 h. Formazan product was dissolved in 200 µl of DMSO, and the absorbance was measured at 540 nm using an automatic LKB 5060-006 Micro Plate Reader (Vienna, Austria). IC50 value was defined as a concentration of the drug that inhibited cell growth by 50% and was calculated by nonlinear regression analysis using GraphPad Prism 6.0 for Windows (La Jolla, CA, USA). Relative selectivity towards cancer cells was calculated as a relation between IC50 value obtained in MRC-5 cells and an average IC50 value from four tested cancer cell lines.

NCI-H460/R cells [2] = assay: MTT assay, cell growth inhibition, NCI-H460/R (MDR); type: cell-based, human
Protocol: as §1
(§3) Human colorectal carcinoma (DLD1), non-small cell lung carcinoma (NCI-H460), and normal embryonic lung fibroblast (MRC-5) cell lines were purchased from the American Type Culture Collection, Rockville, MD. P-gp overexpressing multidrug resistant DLD1-TxR cells were selected by continuous exposure to stepwise increasing concentrations of paclitaxel from DLD1 cells, while NCI-H460/R cells were selected from NCI-H460 cells after DOX selective pressure. MDR cancer cell lines, DLD1-TxR and NCI-H460/R, and their sensitive counterparts were maintained in RPMI 1640 medium supplemented with 10% FBS, 2 mM L-glutamine, and 10,000 U/mL penicillin, 10 mg/mL streptomycin, 25 mg/mL amphotericin B solutions. MRC-5 cells were cultured in DMEM supplemented with 10% FBS, 4 g/L glucose, 2 mM L-glutamine and 5000 U/mL penicillin, 5 mg/mL streptomycin solution. All cell lines were sub-cultured at 72 h intervals using 0.25% trypsin/EDTA and seeded into a fresh medium at 8000 cells/cm^2. All cell lines were maintained at 37 °C in a humidified 5% CO2 atmosphere.
as §2

DLD1 cells = assay: MTT assay, cell growth inhibition, DLD1; type: cell-based; details: Homo sapiens, DLD-1, 72 h
Protocol: as §1, §2

DLD1-TxR cells = assay: MTT assay, cell growth inhibition, DLD1-TxR (MDR); type: cell-based, human; details: 72 h
Protocol: as §1, §3, §2

MRC-5 cells = assay: MTT assay, normal embryonic lung fibroblasts MRC-5; type: cell-based, human; details: Homo sapiens, MRC5; MTT, 72 h, normal fibroblasts; read-out: Cell growth inhibition IC50, MRC-5
Protocol: as §1, §2

[3] = tested on: NCI-H460, NCI-H460/R, DLD1, DLD1-TxR cells; assay: MTT assay, grouping of inhibitors by IC50 over the cancer cell lines; type: cell-based; details: Homo sapiens, Figure 2b, read-out: IC50 values (grouping for Pearson correlation)
Protocol: When the IC50 values obtained by the MTT assay were compared to Hsp90 affinity binding IC50 values (Table 1), a positive Pearson correlation (r > 0.5) was found for all cancer cell lines (Figure 2b).
as §2

Hsp90 = tested on: Hsp90; set-up: method as in PMID 22538015; details: read-out: Hsp90 Affinity binding; cited from earlier work
P-gp = P-gp (Homo sapiens, UniProt P08183); assay: Rhodamine 123 accumulation assay (P-gp activity, flow cytometry); type: cell-based; set-up: P-gp overexpressing multidrug resistant DLD1-TxR cells were selected by continuous exposure to stepwise increasing concentrations of paclitaxel from DLD1 cells; endogenous in cells; host or cells: NCI-H460/R and DLD1-TxR (drug-selected MDR human cancer cells); details: MDR NCI-H460/R and DLD1-TxR cells, 30 min, one concentration per compound (100 nM-10 µM), Figure 3a
Protocol: To study the effect of Hsp90 inhibitors on P-gp activity in MDR cancer cells, intracellular accumulation of the P-gp substrate rhodamine 123 (Rho 123) was analyzed by flow cytometry after 30 min treatment (Figure 3a). A well-known inhibitor of P-gp activity, tariquidar (TQ), was included as a positive control.
The accumulation of Rho 123, a fluorescent P-gp substrate, was measured by flow cytometry. The intensity of the fluorescence is proportional to Rho 123 accumulation in the cell. All cell lines were seeded in adherent 6-well plates and grown overnight. DLD1-TxR and NCI-H460/R cells were treated for 30 min with the following concentrations of Hsp90 inhibitors: 500 nM compound 3, 1 µM compound 4, 10 µM compound 5, 500 nM compound 6, 500 nM compound 7, 1 µM compound 8, 500 nM compound 9, 1 µM compound 10, 1 µM compound 13, 10 µM compound 14, 100 nM compound 15. TQ (10 nM) was used as a positive control for Rho 123 accumulation. Rho 123 (5 μM) was simultaneously added with the investigated compounds and the cells were incubated at 37 °C in 5% CO2 for 30 min. The cells were then trypsinized, pelleted by centrifugation, washed with PBS and placed in ice-cold PBS. The samples were kept on ice in the dark until the analysis on CyFlow Space Partec flow cytometer (Sysmex Partec GmbH, Görlitz, Germany). The fluorescence of Rho 123 was detected on fluorescence channel 1 (FL1-H) at 530 nm. A minimum of 10,000 events were collected for each sample and the obtained results were analyzed using Summit software.

Sequence of P-gp (P08183 whole entry): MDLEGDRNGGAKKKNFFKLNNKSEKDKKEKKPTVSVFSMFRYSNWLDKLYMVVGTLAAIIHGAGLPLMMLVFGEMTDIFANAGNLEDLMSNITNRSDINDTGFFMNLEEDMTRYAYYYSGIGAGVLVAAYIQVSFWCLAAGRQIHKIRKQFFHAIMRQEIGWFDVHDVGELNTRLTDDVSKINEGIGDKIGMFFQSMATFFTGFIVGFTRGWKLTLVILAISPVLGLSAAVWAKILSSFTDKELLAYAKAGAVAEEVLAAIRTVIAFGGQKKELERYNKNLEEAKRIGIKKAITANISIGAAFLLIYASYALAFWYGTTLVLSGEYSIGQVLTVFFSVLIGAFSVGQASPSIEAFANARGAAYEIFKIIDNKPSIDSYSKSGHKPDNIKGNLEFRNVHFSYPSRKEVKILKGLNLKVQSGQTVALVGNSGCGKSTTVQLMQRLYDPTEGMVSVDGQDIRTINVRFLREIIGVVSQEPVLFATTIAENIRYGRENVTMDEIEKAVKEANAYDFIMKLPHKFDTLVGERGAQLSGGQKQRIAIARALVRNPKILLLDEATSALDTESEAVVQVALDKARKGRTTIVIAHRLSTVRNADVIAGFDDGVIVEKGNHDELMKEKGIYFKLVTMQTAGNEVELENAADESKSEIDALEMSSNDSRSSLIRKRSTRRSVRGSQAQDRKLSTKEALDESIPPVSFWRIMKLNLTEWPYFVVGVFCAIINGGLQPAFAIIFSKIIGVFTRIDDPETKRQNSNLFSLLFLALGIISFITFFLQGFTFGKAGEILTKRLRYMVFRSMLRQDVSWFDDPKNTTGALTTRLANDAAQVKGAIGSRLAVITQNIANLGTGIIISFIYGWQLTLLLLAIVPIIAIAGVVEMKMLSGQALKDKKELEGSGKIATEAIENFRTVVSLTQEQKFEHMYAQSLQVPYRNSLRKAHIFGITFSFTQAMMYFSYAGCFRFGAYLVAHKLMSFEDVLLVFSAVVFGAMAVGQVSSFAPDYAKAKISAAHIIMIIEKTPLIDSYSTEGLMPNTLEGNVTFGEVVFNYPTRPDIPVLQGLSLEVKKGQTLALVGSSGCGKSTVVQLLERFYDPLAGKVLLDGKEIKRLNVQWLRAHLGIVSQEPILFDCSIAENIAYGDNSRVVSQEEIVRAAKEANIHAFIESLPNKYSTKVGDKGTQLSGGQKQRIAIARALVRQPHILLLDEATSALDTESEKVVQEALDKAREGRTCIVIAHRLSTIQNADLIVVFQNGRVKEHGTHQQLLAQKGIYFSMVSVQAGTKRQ

IC50 (NCI-H460/R cells [1])	IC50 (NCI-H460 cells)	IC50 (NCI-H460/R cells [2]; Homo sapiens, NCI-H460, 72 h, MDR cells)	IC50 (DLD1 cells)	IC50 (DLD1-TxR cells; Homo sapiens, MDR cells)	IC50 [3]	P-gp activity / Rho 123 accumulation (P-gp)	SMILES	Change in P-gp expression, DLD1 (P-gp expression)	Change in P-gp expression, NCI-H460 (P-gp expression)	Efficacy in MDR NCI-H460/R cells compared with sensitive NCI-H460 (NCI-H460/R cells [2]; 72 h)	Efficacy in MDR DLD1-TxR cells compared with sensitive DLD1 (DLD1-TxR cells)	IC50 (MRC-5 cells)	IC50 (Hsp90)
2270 ± 42.4 nM	–	–	–	–	–	–	COc1cccc2c1C(=O)c1c(O)c3c(c(O)c1C2=O)C[C@@](O)(C(=O)CO)C[C@@H]3O[C@H]1C[C@H](N)[C@H](O)[C@H](C)O1 [DOX, doxorubicin]	significantly increased P-gp expression	significantly increased P-gp expression	–	–	–	–
–	1250 ± 28 nM	1060 ± 12 nM	1900 ± 36 nM	1000 ± 16 nM	≥ 1000 nM	decreased	COc1cccc2c1C(=O)c1c(-c3ccncc3)noc1C2=O [Compound 13]	–	–	evaded resistance mechanisms	collateral sensitivity	174 ± 4 nM	1900 nM

Source: PMC6770006, “Novel Heat Shock Protein 90 Inhibitors Suppress P-Glycoprotein Activity and Overcome Multidrug Resistance in Cancer Cells” (International Journal of Molecular Sciences, 2019)
